Measured values: the NIST ThermoML archive (doi:10.1021/je100832h)

What was measured:
[1] = xn = mol fraction of the nth substance listed; conditions: 101.32 kPa, Liquid, Vibrating tube method
[2] = excess molar enthalpy (molar enthalpy of mixing); xn = mol fraction of the nth substance listed; conditions: 291.15 K, 101 kPa, Liquid, Calvet calorimetry

CCOC(C)=O [ethyl acetate] + CCCCCCC
[1]
Conditions	mass density [kg/m3]
291.15 K, x1 = 0.0161	687.34
291.15 K, x1 = 0.0572	692.44
291.15 K, x1 = 0.1159	700.33
291.15 K, x1 = 0.2057	713.27
291.15 K, x1 = 0.2894	726.55
291.15 K, x1 = 0.3673	740
291.15 K, x1 = 0.4396	753.43
291.15 K, x1 = 0.5126	768.17
291.15 K, x1 = 0.5792	782.54
291.15 K, x1 = 0.6414	796.91
291.15 K, x1 = 0.7006	811.5
291.15 K, x1 = 0.7555	825.89
291.15 K, x1 = 0.8141	842.35
291.15 K, x1 = 0.8631	856.84
291.15 K, x1 = 0.9105	872
291.15 K, x1 = 0.9718	892.61
291.15 K, x1 = 1	902.88
298.15 K, x1 = 0.0409	684.35
298.15 K, x1 = 0.0568	686.42
298.15 K, x1 = 0.1196	694.72
298.15 K, x1 = 0.1493	698.85
298.15 K, x1 = 0.2079	707.39
298.15 K, x1 = 0.2587	715.2
298.15 K, x1 = 0.2981	721.51
298.15 K, x1 = 0.3171	724.7
298.15 K, x1 = 0.3703	733.9
298.15 K, x1 = 0.4203	743.04
298.15 K, x1 = 0.4911	756.8
298.15 K, x1 = 0.5587	770.85
298.15 K, x1 = 0.6169	783.73
298.15 K, x1 = 0.6668	795.46
298.15 K, x1 = 0.727	810.54
298.15 K, x1 = 0.778	824.17
298.15 K, x1 = 0.8302	839.02
298.15 K, x1 = 0.8787	853.8
298.15 K, x1 = 0.9206	867.23
298.15 K, x1 = 0.9879	890.2
298.15 K, x1 = 1	894.4
318.15 K, x1 = 0.053	668.2
318.15 K, x1 = 0.0902	672.9
318.15 K, x1 = 0.1685	683.15
318.15 K, x1 = 0.2326	692.18
318.15 K, x1 = 0.2439	693.85
318.15 K, x1 = 0.2981	702.14
318.15 K, x1 = 0.3991	719.02
318.15 K, x1 = 0.4184	722.43
318.15 K, x1 = 0.4793	733.7
318.15 K, x1 = 0.528	743.25
318.15 K, x1 = 0.5785	753.7
318.15 K, x1 = 0.6277	764.5
318.15 K, x1 = 0.6774	775.92
318.15 K, x1 = 0.7248	787.48
318.15 K, x1 = 0.7652	797.95
318.15 K, x1 = 0.7914	804.97
318.15 K, x1 = 0.8486	821.19
318.15 K, x1 = 0.9067	838.76
318.15 K, x1 = 0.9554	854.25
318.15 K, x1 = 1	869.6
328.15 K, x1 = 0.0084	654.45
328.15 K, x1 = 0.1044	665.69
328.15 K, x1 = 0.1911	676.99
328.15 K, x1 = 0.2817	690.09
328.15 K, x1 = 0.3479	700.46
328.15 K, x1 = 0.423	713.16
328.15 K, x1 = 0.488	725.11
328.15 K, x1 = 0.5492	737.13
328.15 K, x1 = 0.621	752.34
328.15 K, x1 = 0.6655	762.36
328.15 K, x1 = 0.7209	775.45
328.15 K, x1 = 0.7755	789.39
328.15 K, x1 = 0.8274	803.37
328.15 K, x1 = 0.8717	815.94
328.15 K, x1 = 0.9217	831.14
328.15 K, x1 = 0.9731	847.9
328.15 K, x1 = 1	857.17

[2]
Conditions	excess molar enthalpy [kJ/mol]
x1 = 0.0704	0.446
x1 = 0.1554	0.83
x1 = 0.2363	1.14
x1 = 0.3039	1.35
x1 = 0.3738	1.5
x1 = 0.4354	1.57
x1 = 0.4887	1.58
x1 = 0.5306	1.57
x1 = 0.5794	1.54
x1 = 0.6196	1.49
x1 = 0.6682	1.4
x1 = 0.7293	1.25
x1 = 0.7913	1.07
x1 = 0.8405	0.855
x1 = 0.9015	0.573
x1 = 0.9556	0.279
